Data from US11332485B2, “Penicillin-binding protein inhibitors” (priority 2017, dated 2022).

Key:
Type in all cases: cell-based
S. aureus ATCC 29213 = assay: Broth microdilution MIC assay; conditions: Staphylococcus aureus, ATCC29213; broth microdilution, 16-20 hours at 37° C.; read-out: S. aureus 29213 MIC
How it was run: (§1)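 Colonies from Mueller Hinton II agar grown 3-5 h at 37° C in cation-adjusted MH broth; OD600-adjusted inoculum, 5×10^5 CFU/mL final, added to 2-fold compound series. 16-20 h, 37° C. Visual MIC, no-growth endpoint.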

[1] = test system: hyper-permeable E. coli 901C; assay: Broth microdilution MIC assay; conditions: Escherichia coli, read-out: E. coli 901C MIC
How it was run: as §1

E. coli DH5α/pLBII = assay: Broth microdilution MIC assay, empty vector control strain; conditions: Escherichia coli, read-out: E. coli DH5α/pLBII Microbiological Activity (MIC)
How it was run: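 CLSI broth microdilution in cation-supplemented Mueller-Hinton broth, 2-fold compound dilutions, 5×10^5 CFU/mL inoculum, 16-20 h at 37° C, MIC read visually as lowest concentration without growth. E. coli DH5α carries CTX-M15 on pLBII under Lac promoter, or empty pLBII as control.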

CCN1CCN(C(=O)NC(C(=O)N[C@H]2Cc3cccc(C(=O)O)c3OB2O)c2csc(N)n2)C(=O)C1=O (stereo partly drawn) [Example 12, (3R)-3-(2-(2-aminothiazol-4-yl)-2-(4-ethyl-2,3-dioxopiperazine-1-carboxamido)acetamido)-2-hydroxy-3,4-dihydro-2H-benzo[e][1,2]oxaborinine-8-carboxylic acid]
MIC (S. aureus ATCC 29213): 64 to 128 µg/mL | MIC [1]: < 64 µg/mL | MIC (E. coli DH5α/pLBII): 8 to 16 µg/mL
